Measured values as given in patent publication US9394318B2, “Crystal polymorph of magnesium glycinate dihydrate and process for its preparation” (Cypress Pharmaceutical, Inc., priority 2012, dated 2016).

Legend:
[1] = as described in the '012 application, cited from earlier work
[2] = 4.0 mL PBS + 20 mg binder, mixed 1 h at room temperature; hypothetical results; dihydrate
Experimental: Exemplary stock solutions suitable for phosphate-binding assays include the following: phosphate-binding solution (“PBS”) containing 10 mM KH2PO4, 30 mM Na2CO3, 80 mM NaCl, as described in Rosenbaum et al. Nephrol. Dial. Transplant. 12:961-964 (1997); acetate buffer (“AB”) solution containing 0.1N acetic acid, 0.025N sodium acetate, as described in Lowry & Lopez J. Biol. Chem. 162:421-428 (1946); ammonium molybdate (“AM”) solution containing 1% ammonium molybdate in 0.05N H2SO4, as described in Lowry & Lopez; ascorbic acid (“AA”) solution containing 1% ascorbic acid in H2O, as described in Lowry & Lopez.
In general, the phosphate-binding assays are conducted in 12×75 mm glass tubes. 4.0 mL PBS and 20 mg putative phosphate binder are added to a glass tube and then mixed for 1 h at room temperature. 0.1 mL supernatant is pipetted from this tube to a new test tube. 3.0 mL AB, 0.3 mL AA and 0.3 mL AM solutions are added and O.D. is measured at 700 nm after 10 minutes.
The phosphate binding capacity was calculated as follows (mcg stands for micrograms): ((O.D. of sample×95)/O.D. of standard)×40=(mcg)PO4 left in solution ((3800(mcg)PO4 left)×50)/1000=(mcg)PO4 bound per gram of phosphate binder.
The phosphate binding capacities of samples of magnesium glycinate dihydrate produced by the process of Example 1 are measured. X-ray powder diffraction is conducted on each of the samples to verify that they consist of the polymorph described in Example 2.

Compound | PO4 binding [2] [mg/g] | further results
magnesium glycinate [magnesium glycinate salt] | – | ability to bind phosphate per gram ([1]; in vitro phosphate binding assay): at least 50 mg phosphate per gram
O=C1C[NH][Mg]2([OH])([OH])([NH]CC(=O)[O]2)[O]1 [Sample 3, magnesium glycinate dihydrate] | 176.2 | –
[Cl-].[Cl-].[Mg+2] [magnesium chloride] | – | ability to bind phosphate ([1]; formed from magnesium glycinate and stomach acid (HCl)): does not have the ability to bind phosphate in appreciable quantities
O=C1C[NH][Mg]2([OH])([OH])([NH]CC(=O)[O]2)[O]1 [Sample 4, magnesium glycinate dihydrate] | 178.1 | –
O=C1C[NH][Mg]2([OH])([OH])([NH]CC(=O)[O]2)[O]1 [Sample 2, magnesium glycinate dihydrate] | 177.0 | –
O=C1C[NH][Mg]2([OH])([OH])([NH]CC(=O)[O]2)[O]1 [Sample 1, magnesium glycinate dihydrate] | 175.0 | –
